Laboratory results as given in patent US12497365B2, “4-pyridinyl formamide compound or derivative thereof, preparation method therefor, herbicidal composition and use thereof” (Qingdao Kingagroot Chemical Compound Co., Ltd., priority 2019, dated 2025).

How the values were obtained:
Experiment in all cases: Weeding effect in post-emergence stage
Assay type in all cases: in vivo
Conditions in all cases: active ingredient 2000 g/ha, 3 weeks after application, fresh weight control rate
Abutilon theophrasti = test system: Abutilon theophrasti
In short: (§1)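 Control of growth was scored on fresh weight 3 weeks after a post-emergence spray-tower application. Rates were 2000, 1000, 500, 250 or 125 g/ha, formulated in acetone/Tween 80 plus methyl oleate concentrate (1.5 L/ha), and applied to potted plants at the 2-3 leaf stage.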

[1] = test system: Amaranthus retroflexus L.
In short: as §1

Chenopodium album = test system: Chenopodium album
In short: as §1

Descurainia sophia = test system: Descurainia sophia
In short: as §1

Structure (SMILES) | Weeding effect, activity level (growth control rate), Abutilon theophrasti (Abutilon theophrasti) | Weeding effect, activity level (growth control rate), Amaranthus retroflexus L. [1] | Weeding effect, activity level (growth control rate), Chenopodium album (Chenopodium album) | Weeding effect, activity level (growth control rate), Descurainia sophia (Descurainia sophia)
Cn1nnnc1NC(=O)c1ccnc(-c2ccc(F)cc2)c1[N+](=O)[O-] [Compound 1-212] | 5 (Level 5: growth control rate is above 85%) | 5 (Level 5: growth control rate is above 85%) | 5 (Level 5: growth control rate is above 85%) | 5 (Level 5: growth control rate is above 85%)
Cn1nnnc1NC(=O)c1ccnc(-c2ccc(F)cc2)c1C#N [Compound 1-213] | 5 (Level 5: growth control rate is above 85%) | 5 (Level 5: growth control rate is above 85%) | 5 (Level 5: growth control rate is above 85%) | 5 (Level 5: growth control rate is above 85%)
COCc1c(C(=O)Nc2nnnn2C)ccnc1-c1ccc(F)cc1 [Compound 1-214] | 5 (Level 5: growth control rate is above 85%) | 5 (Level 5: growth control rate is above 85%) | 5 (Level 5: growth control rate is above 85%) | 5 (Level 5: growth control rate is above 85%)
COC(C)c1c(C(=O)Nc2nnnn2C)ccnc1-c1ccc(F)cc1 (centres unmarked) [Compound 1-215] | 5 (Level 5: growth control rate is above 85%) | 5 (Level 5: growth control rate is above 85%) | 5 (Level 5: growth control rate is above 85%) | 5 (Level 5: growth control rate is above 85%)
CCC(OC)c1c(C(=O)Nc2nnnn2C)ccnc1-c1ccc(F)cc1 (centres unmarked) [Compound 1-216] | 5 (Level 5: growth control rate is above 85%) | 5 (Level 5: growth control rate is above 85%) | 5 (Level 5: growth control rate is above 85%) | 5 (Level 5: growth control rate is above 85%)
COCCc1c(C(=O)Nc2nnnn2C)ccnc1-c1ccc(F)cc1 [Compound 1-217] | 5 (Level 5: growth control rate is above 85%) | 5 (Level 5: growth control rate is above 85%) | 5 (Level 5: growth control rate is above 85%) | 5 (Level 5: growth control rate is above 85%)
C=Cc1c(C(=O)Nc2nnnn2C)ccnc1-c1ccc(F)cc1 [Compound 1-218] | 5 (Level 5: growth control rate is above 85%) | 5 (Level 5: growth control rate is above 85%) | 5 (Level 5: growth control rate is above 85%) | 5 (Level 5: growth control rate is above 85%)
C=CCc1c(C(=O)Nc2nnnn2C)ccnc1-c1ccc(F)cc1 [Compound 1-219] | 5 (Level 5: growth control rate is above 85%) | 5 (Level 5: growth control rate is above 85%) | 5 (Level 5: growth control rate is above 85%) | 5 (Level 5: growth control rate is above 85%)
C#Cc1c(C(=O)Nc2nnnn2C)ccnc1-c1ccc(F)cc1 [Compound 1-220] | 5 (Level 5: growth control rate is above 85%) | 5 (Level 5: growth control rate is above 85%) | 5 (Level 5: growth control rate is above 85%) | 5 (Level 5: growth control rate is above 85%)
Cn1nnnc1NC(=O)c1ccnc(-c2ccc(F)cc2)c1C1CC1 [Compound 1-221] | 5 (Level 5: growth control rate is above 85%) | 5 (Level 5: growth control rate is above 85%) | 5 (Level 5: growth control rate is above 85%) | 5 (Level 5: growth control rate is above 85%)
Cn1nnnc1NC(=O)c1ccnc(-c2ccc(F)cc2)c1C=C(F)F [Compound 1-222] | 5 (Level 5: growth control rate is above 85%) | 5 (Level 5: growth control rate is above 85%) | 5 (Level 5: growth control rate is above 85%) | 5 (Level 5: growth control rate is above 85%)
